Test results: patent US20240409576A1, “-ent-19-norprogesterone, compositions and uses thereof to treat traumatic brain injury (TBI), including concussions-” (Oragenics, Inc., priority 2015, published 2024)
≈ marks a conversion by molar mass, not a printed value. Entries after “also recorded” stand apart in the source; their conditions may differ. Read-outs that look alike come from different tables or passages of the source.

Experiments:
[1] = test system: moderate-to-severe adult TBI; details: progesterone IV for 3 days after injury, cited from earlier work
[2] = under certain conditions; cited from earlier work
[3] = test system: rat model of traumatic brain injury (mid-line cortical impact); assay type: in vivo, Sprague-Dawley rats; details: for Motor function (neuroscore) compared to vehicle-treated rats: 48 h post-injury, 6 h, 24 h
[4] = test system: rat model of traumatic brain injury (mid-line cortical impact); assay type: in vivo, Sprague-Dawley rats; details: 48 h post-injury
[5] = test system: rat model of traumatic brain injury (mid-line cortical impact); assay type: in vivo, Sprague-Dawley rats; details: 48 h post-injury; remark: listed apart in the source
[6] = test system: rat model of traumatic brain injury (mid-line cortical impact); assay type: in vivo, Sprague-Dawley rats
[7] = test system: rat model of traumatic brain injury (mid-line cortical impact); assay type: in vivo, Sprague-Dawley rats; remark: listed apart in the source
[8] = test system: rat model of traumatic brain injury (mid-line cortical impact); assay type: in vivo, Sprague-Dawley rats; details: 48 h post-injury; for Time spent in thigmotaxia compared to vehicle-treated rats: trial not stated
nasal mucosa of a rat = assay: Intranasal penetration of Evans Blue labeled PRV002, atomizer vs pipette; assay type: in vivo; details: PRV002 labeled with Evans Blue dye, post-mortem evaluation
Experimental: The goal of this study is to evaluate the motor and cognitive function of rats treated via intranasal administration with PRV-002, an analogue of the enantiomer of progesterone, following traumatic brain injury. Prior to the initiation of the treatment study, an anatomical evaluation is performed using PRV002 labeled with Evans Blue dye to determine the optimal intranasal/intracerebral penetration of compound using intranasal administration via a miniature atomizer vs. a manual pipette.

physchem = details: aqueous with cosolvent or surfactant or cyclodextrin, thermodynamic from solid
[9] = trial 1, intraperitoneal 4 mg/kg
[10] = trial 1, intraperitoneal 16 mg/kg
[11] = trial 2, intraperitoneal 4 mg/kg
[12] = trial 2, intraperitoneal 16 mg/kg
[13] = trial not given, intraperitoneal 4 mg/kg
[14] = trial not given, intraperitoneal 16 mg/kg
[15] = 48 h post-injury, intranasal 0.05 mg/kg

For CC(=O)[C@H]1CC[C@H]2[C@@H]3CCC4=CC(=O)CC[C@]4(C)[C@H]3CC[C@]12C [progesterone], the Mortality rate ([1]; control 30.4%) is listed as 13.6% and the Serious adverse events ([1]; data safety monitoring board) is listed as “no serious adverse events attributable to progesterone treatment”.
In the case of CC(=O)[C@@H]1CC[C@@H]2[C@H]3CCC4=CC(=O)CC[C@@]4(C)[C@@H]3CC[C@]21C [ent-Progesterone, ent-progesterone], the “Antioxidant activity relative to racemate” value [2] is given as “three times the antioxidant activity of racemate”.
With CC(=O)[C@@H]1CC[C@@H]2[C@H]3CCC4=CC(=O)CC[C@H]4[C@@H]3CC[C@]21C (single isomer, unassigned; ent-19) [PRV-002, ent-19-norpregn-4-ene-3,20-dione] the “Group differences in neuroscore” value ([3]; 24 h post-injury, intraperitoneal 4 mg/kg or 16 mg/kg, sham, vehicle and treated groups) was “failed to reveal significant differences; also recorded: no significant group differences”, the “Motor function (neuroscore) compared to vehicle-treated rats” value ([3]; intraperitoneal 4 mg/kg at 15 min) was “significant improvement; also recorded: significantly better motor performance; also recorded: significant attenuation of TBI-induced motor function deficits; also recorded: significantly better motor function” and the “Motor function (neuroscore) compared to vehicle-treated rats” value ([3]; intraperitoneal 16 mg/kg at 15 min) was “significant improvement; also recorded: significantly better motor performance; also recorded: significant attenuation of TBI-induced motor function deficits; also recorded: significantly better motor function”. For the same compound, the “Morris water maze memory score (cognitive deficits) vs vehicle-treated injured rats” value [4, 9] was “significantly attenuated TBI-related cognitive deficits”, the “Morris water maze memory score (cognitive deficits) vs vehicle-treated injured rats” value [4, 10] was “significantly attenuated TBI-related cognitive deficits” and the “Morris water maze memory score (cognitive deficits) vs vehicle-treated injured rats” value [4, 11] was “significantly attenuated TBI-related cognitive deficits”. For the same compound, the “Morris water maze memory score (cognitive deficits) vs vehicle-treated injured rats” value [4, 12] was “significantly attenuated TBI-related cognitive deficits”, the “Morris water maze memory score (cognitive deficits) vs vehicle-treated injured rats” value [4, 13] was “ameliorated; also recorded: vehicle-treated injured rats have significantly worse cognitive function; also recorded: amelioration of TBI-induced cognitive deficits” and the “Morris water maze memory score (cognitive deficits) vs vehicle-treated injured rats” value [4, 14] was “ameliorated; also recorded: vehicle-treated injured rats have significantly worse cognitive function; also recorded: amelioration of TBI-induced cognitive deficits”. For the same compound, the “Time spent in thigmotaxia vs vehicle-treated injured rats” value [5, 9] was “vehicle-treated rats spend significantly more time in thigmotaxia”, the “Time spent in thigmotaxia vs vehicle-treated injured rats” value [5, 10] was “vehicle-treated rats spend significantly more time in thigmotaxia” and the “Time spent in thigmotaxia vs vehicle-treated injured rats” value [5, 11] was “vehicle-treated rats spend significantly more time in thigmotaxia”. The “Time spent in thigmotaxia vs vehicle-treated injured rats” value [5, 12] was “vehicle-treated rats spend significantly more time in thigmotaxia”, the “Time spent in thigmotaxia vs vehicle-treated injured rats” value [5, 13] was “ameliorated; also recorded: vehicle-treated injured rats spend significantly more time in thigmotaxia; also recorded: spend less time in the thigmotaxia area” and the “Time spent in thigmotaxia vs vehicle-treated injured rats” value [5, 14] was “ameliorated; also recorded: vehicle-treated injured rats spend significantly more time in thigmotaxia; also recorded: spend less time in the thigmotaxia area”. The “Motor function (neuroscore) compared to vehicle-treated rats” value ([6]; 24 h post-injury, intranasal 0.1 mg/kg) was “significantly improved motor function”, the “Motor function (neuroscore) compared to vehicle-treated rats” value ([6]; 24 h post-injury, intranasal 0.1 mg/kg, listed as PRV002) was “significantly improved” and the “Motor function (neuroscore) compared to vehicle-treated rats” value ([6]; 24 h post-injury, intranasal 4 mg/kg) was “significantly improved motor function”. The “Motor function (neuroscore) compared to vehicle-treated rats” value ([6]; 24 h post-injury, intranasal 4 mg/kg, listed as PRV002) was “significantly improved”, the “Motor function (neuroscore) compared to vehicle-treated rats” value [6, 15] was “significantly better motor function” and the “Motor performance (neuroscore) compared to sham rats” value [6, 15] was “significantly worse performance”. For the same compound, the “Motor function (neuroscore) compared to vehicle-treated rats” value ([6]; 48 h post-injury, intranasal 0.05 mg/kg, listed as PRV002) was “significantly improved motor function”, the “Motor function (neuroscore) compared to vehicle-treated rats” value ([6]; 48 h post-injury, intranasal 0.1 mg/kg) was “significantly better motor function” and the “Motor function (neuroscore) compared to vehicle-treated rats” value ([6]; 48 h post-injury, intranasal 0.1 mg/kg, listed as PRV002) was “significantly improved motor function”. For the same compound, the “Motor performance (neuroscore) compared to sham rats” value ([6]; 48 h post-injury, intranasal 1 mg/kg) was “significantly worse performance”, the “Motor function (neuroscore) compared to vehicle-treated rats” value ([6]; 48 h post-injury, intranasal 4 mg/kg) was “significantly better motor function” and the “Motor function (neuroscore) compared to vehicle-treated rats” value ([6]; 48 h post-injury, intranasal 4 mg/kg, listed as PR V-002) was “significantly better motor function”. For the same compound, the “Motor function (neuroscore) compared to vehicle-treated rats” value ([6]; 48 h post-injury, intranasal 4 mg/kg, listed as PRV002) was “significantly improved motor function”, the “Motor performance scores (neuroscore) compared to sham rats” value ([6]; rat, in vivo) was “not significantly different from sham rats” and the “Cognitive function (post-traumatic memory)” value ([7]; 48 h post-injury/treatment, intranasal 4 mg/kg, trial not stated) was “significant improvement in cognitive function”. For the same compound, the “Morris water maze memory score (cognitive performance) compared to all other groups” value ([7]; rat, in vivo) was “all groups have significantly lower memory scores than PRV-002 4 mg/kg-treated rats”, the “Morris water maze memory score (cognitive performance) compared to all other groups” value ([7]; trial 1, 48 h post-injury, intranasal 4 mg/kg) was “significantly better cognitive performance” and the “Group differences in cognitive performance (Morris water maze memory score)” value ([7]; trial 2, 48 h post-injury, intranasal 0.05, 0.1, 1, 4 mg/kg groups) was “significant group differences in cognitive performance are not observed”. For the same compound, the “Group differences in time spent in thigmotaxia” value ([8]; trial 1, intranasal 0.05, 0.1, 1, 4 mg/kg groups) was “no significant group differences are observed in time spent in thigmotaxia”, the “Time spent in thigmotaxia compared to vehicle-treated injured rats” value ([8]; trial 2, intranasal 4 mg/kg) was “significantly less time in thigmotaxia” and the “Time spent in thigmotaxia compared to sham rats” value ([8]; trial 2, intranasal 005 mg/kg) was “significantly more time in thigmotaxia”. For the same compound, the “Time spent in thigmotaxia compared to vehicle-treated rats” value ([8]; intranasal 4 mg/kg) was “spent significantly less time in thigmotaxia”, the “Time spent in thigmotaxia compared to vehicle-treated rats” value ([8]; intranasal 4 mg/kg, listed as PRV002) was “significantly reduced” and the “Nasal mucosal penetration, miniature atomizer vs manual pipette” value (nasal mucosa of a rat) was “clear advantage of the miniature atomizer over the pipette technique”. For the same compound, the Resultant solution (30 mg in 1 ml Solution 1, mix time 60 min) was “Hazy”, the Resultant solution (+0.1 ml Solution 1, ~1.1 ml, mix time 120 min) was “Hazy” and the Resultant solution (+0.1 ml Solution 1, ~1.2 ml, mix O/N) was “Hazy to Clear”. The solubility (physchem) was ~23 mg/mL (≈ 76.6 mM).
